In patent publication US20250206729A1, “DUAL RAF AND TUBULIN INHIBITORS AND METHODS OF USE THEREOF” (Deciphera Pharmaceuticals, LLC, priority 2023, published 2025):
pIC50: −log10 of the molar value. Read-outs that look alike come from different tables or passages of the source.

How the values were obtained:
MiaPaca-2 cells = test: MiaPaca-2 cell proliferation assay; assay type: cell-based; conditions: Homo sapiens, MIA PaCa-2
[1] = biological target: T1, C-Raf kinase (SEQ ID NO: 2) (Homo sapiens, UniProt P04049, Y340D/Y341D); test: Biochemical assay for C-Raf (coupled pyruvate kinase/lactate dehydrogenase)
T1 construct: C-Raf residues 306-end; Y340D, Y341D with N-; GST (N); purchased Sigma
T1 sequence (P04049 307-648 Y340D/Y341D): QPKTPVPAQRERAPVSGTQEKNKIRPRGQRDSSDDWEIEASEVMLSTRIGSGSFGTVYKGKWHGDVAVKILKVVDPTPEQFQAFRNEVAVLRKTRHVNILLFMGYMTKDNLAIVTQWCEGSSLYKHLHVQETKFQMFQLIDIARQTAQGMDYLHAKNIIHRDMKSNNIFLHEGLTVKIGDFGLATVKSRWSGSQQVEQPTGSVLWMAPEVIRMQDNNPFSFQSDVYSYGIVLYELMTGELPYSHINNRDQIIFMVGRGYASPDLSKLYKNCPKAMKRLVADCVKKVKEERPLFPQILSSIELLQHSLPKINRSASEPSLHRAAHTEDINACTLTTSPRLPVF

Pa16c cells = test: Pa16c cell proliferation assay; assay type: cell-based; conditions: 67 to 72 h incubation, resazurin; read-out: Pa16c (inhibition of cell proliferation, IC50)
HCT-116 cells = test: HCT-116 cell proliferation assay; assay type: cell-based; conditions: Homo sapiens
HPAF-II cells = test: HPAF-II cell proliferation assay; assay type: cell-based; conditions: Homo sapiens
[2] = biological target: T2, B-Raf kinase (SEQ ID NO: 1) (Homo sapiens, UniProt P15056); test: Biochemical assay for B-Raf (coupled pyruvate kinase/lactate dehydrogenase)
T2 construct: GST (N); purchased Sigma
T2 sequence (P15056 416-766): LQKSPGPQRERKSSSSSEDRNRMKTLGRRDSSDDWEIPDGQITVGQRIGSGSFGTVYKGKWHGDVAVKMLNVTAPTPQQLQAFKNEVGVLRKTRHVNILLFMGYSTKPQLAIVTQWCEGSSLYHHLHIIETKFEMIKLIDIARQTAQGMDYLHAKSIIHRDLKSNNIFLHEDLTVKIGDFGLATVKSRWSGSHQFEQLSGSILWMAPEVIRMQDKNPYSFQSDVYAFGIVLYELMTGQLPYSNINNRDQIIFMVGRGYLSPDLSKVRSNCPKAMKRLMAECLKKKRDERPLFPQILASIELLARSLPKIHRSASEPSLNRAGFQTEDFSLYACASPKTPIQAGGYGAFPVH

[3] = test system: tubulin polymerization in HCT-116 cells; test: Cellular tubulin polymerization assay (HCT-116 cells); assay type: cell-based; conditions: Table 4; HCT-116 cells; read-out: Tubulin Cellular
Experimental: HCT-116 cells (catalog #CCL-247) are obtained from the American Type Culture Collect (ATCC, Manassas, VA). Briefly, cells are grown in McCoy's 5A supplemented with 10% characterized fetal bovine serum (Invitrogen, Carlsbad, CA) and 1% Penicillin/Streptomycin/L-Glutamine at 37° C., 5% CO2, and 95% humidity. Cells are expanded until reaching 70-95% confluency at which point they are sub-cultured or harvested for assay use. 450000 cells are added per well in 1500 μL complete growth medium in a tissue culture treated, 12-well plate. Plates are incubated for 18 to 24 h at 37° C., 5% CO2, and 95% humidity. At the end of the incubation, 2000 μL of base culture media is added to each well, followed by a serial dilution of compound. Plates are incubated for an additional 1 h at 37° C., 5% CO2, and 95% humidity. Lysates are generated by the addition of 100 μL Lysis and Microtubule Stabilization Buffer 1 (LMSO1, Cytoskeleton Inc, Denver, CO) supplemented with GTP (BST06, Cytoskeleton Inc), ATP (BSA04, Cytoskeleton Inc), and Protease Inhibitor Cocktail Stock (PIC02, Cytoskeleton Inc). Cells are scraped off wells using a rubber cell scraper and collected in a clean 96-well plate. Lysates are centrifuged at 1000× g, 37° C. for 10 min and supernatant fraction is placed into an additional 96-well plate. The remaining pellet fraction is reconstituted in 100 μL LMS01 buffer and sonicated for 10 min. Pellet and Supernatant fractions are probed for α-tubulin via western blot analysis on the Jess System or equivalent (Bio-techne, Minneapolis, MN). Data is analyzed using Prism software (Graphpad, San Diego, CA) to calculate IC50 values.

[4] = 67-72 h incubation, resazurin, read-out: MiaPaca-2 (inhibition of cell proliferation, IC50)
[5] = 1 mM ATP, read-out: CRAF (inhibition of biochemical activity, IC50)
[6] = HCT-116, 67 to 72 h incubation, resazurin, read-out: HCT-116 (inhibition of cell proliferation, IC50)
[7] = HPAF-II, 115 to 120 h incubation, resazurin, read-out: HPAF-II (inhibition of cell proliferation, IC50)
[8] = 1 mM ATP, read-out: BRAF (inhibition of biochemical activity, IC50)
[9] = Table 4, mutant KRAS pancreatic cancer cell line, anti-proliferative, read-out: MiaPaca-2
[10] = Table 4, mutant KRAS colorectal cancer cell line, anti-proliferative, read-out: HCT-116
[11] = Table 4, mutant KRAS pancreatic cancer cell line, anti-proliferative, read-out: HPAF-II

Structure (SMILES)	pIC50 (MiaPaca-2 cells; [4])	pIC50 [1, 5]	pIC50 (Pa16c cells)	pIC50 (HCT-116 cells; [6])	pIC50 (HPAF-II cells; [7])	pIC50 [2, 8]	pIC50 (MiaPaca-2 cells; [9])	pIC50 [3]	pIC50 (HCT-116 cells; [10])	pIC50 (HPAF-II cells; [11])	pIC50 ([1]; Table 4, read-out: CRAF)	pIC50 ([2]; Table 4, read-out: BRAF)
Cc1ccc(NC(=O)c2cc(C#N)cnn2)cc1-c1cc(N[C@H](C)CO)nc(N2CCOCC2)c1 [Example 81]	> 7.00	6.30 to 7.00	> 7.00	> 7.00	> 7.00	6.00 to 6.30						
Cc1ccc(NC(=O)c2cc(Br)cnn2)cc1-c1cc(N[C@H](C)CO)nc(N2CCOCC2)c1 [Example 82]	6.30 to 7.00	> 7.00	5.00 to 6.00	6.30 to 7.00	5.00 to 6.00	6.30 to 7.00						
Cc1ccc(NC(=O)c2cc(C3CC3)cnn2)cc1-c1ccnc(N2C[C@@H](C)O[C@@H](C)C2)c1 [Example 85]	5.00 to 6.00	5.00 to 6.00	5.00 to 6.00	5.00 to 6.00	5.00 to 6.00	5.00 to 6.00						
Cc1ccc(NC(=O)c2cc(C(F)(F)F)cnn2)cc1-c1ccnc(N2C[C@H]3C[C@@H]2CO3)c1 [Example 86]	> 7.00	5.00 to 6.00	> 7.00	> 7.00	> 7.00	5.00 to 6.00						
Cc1ccc(NC(=O)c2cc(C(F)(F)F)cnn2)cc1-c1ccnc(N2C[C@@H]3C[C@H]2CO3)c1 [Example 87]	> 7.00	6.30 to 7.00	> 7.00	> 7.00	> 7.00	6.30 to 7.00						
Cc1ccc(NC(=O)c2cc(C3CC3)cnn2)cc1-c1ccnc(N2C[C@H]3C[C@@H]2CO3)c1 [Example 88]	> 7.00	> 7.00	> 7.00	> 7.00	> 7.00	6.30 to 7.00						
Cc1ccc(NC(=O)c2cc(C3CC3)cnn2)cc1-c1ccnc(N2C[C@@H]3C[C@H]2CO3)c1 [Example 89]	> 7.00	5.00 to 6.00	> 7.00	> 7.00	> 7.00	6.30 to 7.00						
Cc1ccc(NC(=O)c2cc(C(F)(F)F)cnn2)cc1-c1nc(N[C@H](C)CO)cc(N2C[C@H]3C[C@@H]2CO3)n1 [Example 90]	6.30 to 7.00	5.00 to 6.00	5.00 to 6.00	6.30 to 7.00	6.00 to 6.30	5.00 to 6.00						
CNc1cc(N2C[C@H]3C[C@@H]2CO3)nc(-c2cc(NC(=O)c3cc(C(F)(F)F)cnn3)ccc2C)n1 [Example 91]	6.00 to 6.30	5.00 to 6.00	5.00 to 6.00	5.00 to 6.00	5.00 to 6.00	5.00 to 6.00						
CNc1cc(-c2cc(NC(=O)c3cc(C(F)(F)F)cnn3)ccc2C)cc(N2C[C@H]3C[C@@H]2CO3)n1 [Example 92]	> 7.00	6.30 to 7.00	> 7.00	> 7.00	> 7.00	6.30 to 7.00						
Cc1ccc(NC(=O)c2cc(C(F)(F)F)cnn2)cc1-c1cc(N[C@H](C)CO)nc(N2C[C@H]3C[C@@H]2CO3)c1 [Example 93]	> 7.00	6.30 to 7.00	> 7.00	> 7.00	> 7.00	6.30 to 7.00						
CNc1cc(-c2cc(NC(=O)c3cc(C(F)(F)F)cnn3)ccc2C)nc(N2C[C@H]3C[C@@H]2CO3)n1 [Example 94]	> 7.00	5.00 to 6.00	> 7.00	> 7.00	> 7.00	5.00 to 6.00						
Cc1ccc(NC(=O)N2CC[C@@H](CC(F)(F)F)C2)cc1-c1cc(N[C@H](C)CO)nc(N2CCOCC2)c1 [Exarafenib, reference compound]							5.00 to 6.00	5.00 to 6.00	6.00 to 6.30	5.00 to 6.00		
Cc1ccc(NC(=O)c2ccnc(C(F)(F)F)c2)cc1-c1cc(OCCO)nc(N2CCOCC2)c1 [Naporafenib, reference compound]							5.00 to 6.00	5.00 to 6.00	5.00 to 6.00	5.00 to 6.00	> 7.00	> 7.00
C[C@@H](NC(=O)c1ncnc(N)c1Cl)c1ncc(C(=O)Nc2cc(C(F)(F)F)c(Cl)cn2)s1 [Tovorafenib, reference compound]							5.00 to 6.00	5.00 to 6.00	5.00 to 6.00	5.00 to 6.00		
